From PubChem BioAssay (NCI)
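Step 1: Grow cells in 96-well plates. Step 2: Expose to compound for 48 hours at 5 concentrations. Step 3: Interpolate endpoints linearly; if unreached, use highest concentration. The concentration for full growth arrest is given as TGI.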

Assays:
Experiment in all cases: growth of human tumour cells (NCI), 48 h
NCI-H522 lung = system: NCI-H522 lung
NCI-H226 lung = system: NCI-H226 lung
HT29 colon = system: HT29 colon
NCI-H460 lung = system: NCI-H460 lung
SW-620 colon = system: SW-620 colon
LOX IMVI melanoma = system: LOX IMVI melanoma
NCI/ADR-RES ovarian = system: NCI/ADR-RES ovarian
SNB-19 CNS = system: SNB-19 CNS
UACC-257 melanoma = system: UACC-257 melanoma
HS 578T breast = system: HS 578T breast
MDA-N = system: MDA-N
SF-268 CNS = system: SF-268 CNS
MCF7 breast = system: MCF7 breast
SR leukemia = system: SR leukemia
SK-OV-3 ovarian = system: SK-OV-3 ovarian
UO-31 renal = system: UO-31 renal
SF-295 CNS = system: SF-295 CNS

Row | Structure (SMILES) | TGI (NCI-H522 lung) | TGI (NCI-H226 lung) | TGI (HT29 colon) | TGI (NCI-H460 lung) | TGI (SW-620 colon) | TGI (LOX IMVI melanoma) | TGI (NCI/ADR-RES ovarian) | TGI (SNB-19 CNS) | TGI (UACC-257 melanoma) | TGI (HS 578T breast) | TGI (MDA-N) | TGI (SF-268 CNS) | TGI (MCF7 breast) | TGI (SR leukemia) | TGI (SK-OV-3 ovarian) | TGI (UO-31 renal) | TGI (SF-295 CNS)
1 | O=c1[nH]c(=O)n(COCc2ccccc2)c2ccsc12 | > 100 µM | > 100 µM | > 100 µM | > 100 µM | > 100 µM | > 100 µM | > 100 µM | > 100 µM | > 100 µM | > 100 µM | > 100 µM | > 100 µM | > 100 µM | > 100 µM | – | – | –
2 | CC#CC(O)(C(=O)OCCCN(C)C)C1CCCCC1 (stereo not given) | – | > 100 µM | > 100 µM | > 100 µM | > 100 µM | > 100 µM | > 100 µM | > 100 µM | > 100 µM | > 100 µM | > 100 µM | > 100 µM | > 100 µM | > 100 µM | > 100 µM | > 100 µM | > 100 µM
3 | O=C1/C(=C\Oc2ccc(F)cc2)N2CCC1CC2 | > 100 µM | > 100 µM | > 100 µM | – | – | > 100 µM | > 100 µM | > 100 µM | > 100 µM | > 100 µM | > 100 µM | > 100 µM | > 100 µM | 63.1 µM | > 100 µM | > 100 µM | > 100 µM
4 | COc1ccc(N=NC(=O)NC(Cc2ccccc2)C(=O)O)cc1 (stereo not given) | > 100 µM | > 100 µM | > 100 µM | > 100 µM | > 100 µM | > 100 µM | > 100 µM | > 100 µM | > 100 µM | > 100 µM | > 100 µM | > 100 µM | > 100 µM | > 100 µM | – | > 100 µM | > 100 µM
5 | Cc1c(N2C(=O)/C(=C/c3ccc(Cl)cc3)N=C2c2ccccc2)c(=O)n(-c2ccccc2)n1C | 44.8 µM | 96.7 µM | 79.8 µM | > 100 µM | > 100 µM | 35.6 µM | > 100 µM | – | 42.8 µM | – | 71.6 µM | > 100 µM | > 100 µM | 76.3 µM | > 100 µM | 93.7 µM | > 100 µM
6 | CCCCNC(=O)c1cc2c(cc1Cl)Sc1nccn1S2(=O)=O | > 100 µM | – | > 100 µM | > 100 µM | > 100 µM | > 100 µM | > 100 µM | > 100 µM | > 100 µM | > 100 µM | > 100 µM | > 100 µM | > 100 µM | > 100 µM | > 100 µM | > 100 µM | > 100 µM
7 | O=C(CC(=O)N1N=C(N2CCCCC2)CC1c1ccccc1)Nc1ccccc1 (stereo not given) | > 100 µM | > 100 µM | > 100 µM | > 100 µM | > 100 µM | > 100 µM | > 100 µM | > 100 µM | > 100 µM | > 100 µM | > 100 µM | > 100 µM | > 100 µM | > 100 µM | – | > 100 µM | > 100 µM
8 | O=C1NC(N2CCOCC2)=N/C1=C\c1ccc(Cl)cc1 | > 100 µM | > 100 µM | > 100 µM | – | > 100 µM | > 100 µM | > 100 µM | > 100 µM | > 100 µM | > 100 µM | > 100 µM | > 100 µM | > 100 µM | > 100 µM | > 100 µM | > 100 µM | > 100 µM
9 | CN(C)CCCN1C(=S)N(CCCN(C)C)c2c3ccccc3nc3c([N+](=O)[O-])ccc1c23 | 10.5 µM | 24.1 µM | 12 µM | 18 µM | 17.4 µM | 17.9 µM | 27.9 µM | 26 µM | 20.3 µM | 41 µM | 21.4 µM | 32.5 µM | 19.4 µM | – | 50.8 µM | 27.9 µM | 23.7 µM
10 | CCCNC(=S)/N=C/c1c(O)cc(C)oc1=O | – | > 100 µM | > 100 µM | > 100 µM | > 100 µM | > 100 µM | > 100 µM | > 100 µM | > 100 µM | – | > 100 µM | – | > 100 µM | – | > 100 µM | > 100 µM | > 100 µM
11 | O=C1C[C@H](c2ccccc2)O[C@@H](c2ccccc2)C1 | – | > 100 µM | > 100 µM | > 100 µM | > 100 µM | > 100 µM | > 100 µM | > 100 µM | > 100 µM | > 100 µM | > 100 µM | > 100 µM | > 100 µM | – | > 100 µM | > 100 µM | > 100 µM
12 | NC(Cc1ccc(OCc2ccccc2)cn1)C(=O)O (stereo not given) | > 100 µM | > 100 µM | > 100 µM | > 100 µM | > 100 µM | > 100 µM | > 100 µM | > 100 µM | > 100 µM | > 100 µM | > 100 µM | > 100 µM | > 100 µM | > 100 µM | – | > 100 µM | > 100 µM
13 | COc1cc(NS(C)(=O)=O)ccc1Nc1cc[nH]c2ccc3nccc3c12 | 22.6 µM | 36.9 µM | 31.3 µM | 34.5 µM | 41 µM | 36 µM | > 100 µM | 29.9 µM | 33.2 µM | > 100 µM | 30.8 µM | 25 µM | 35.9 µM | – | – | > 100 µM | 32.9 µM
14 | Cc1cn([C@@H]2C[C@@H]2CO)c(=O)[nH]c1=O | > 100 µM | > 100 µM | > 100 µM | > 100 µM | > 100 µM | > 100 µM | > 100 µM | > 100 µM | > 100 µM | > 100 µM | > 100 µM | > 100 µM | > 100 µM | > 100 µM | – | > 100 µM | –
15 | COc1ccccc1NC(=S)NN=C(C)c1cccc(C(C)=NNC(=S)Nc2ccccc2OC)n1 | 97.3 µM | > 100 µM | > 100 µM | > 100 µM | > 100 µM | > 100 µM | 34.7 µM | > 100 µM | 93.9 µM | – | > 100 µM | > 100 µM | > 100 µM | 17.2 µM | > 100 µM | > 100 µM | > 100 µM
